Source: patent publication US20240132431A1, “METHOD FOR ALKYLATING ACIDIC FUNCTIONAL GROUP” (Chugai Seiyaku Kabushiki Kaisha, priority 2021, published 2024)
Values belong to the compound of their own block, whether it stands above or below them.

Biological target: T1, Bcl-2 protein (Recombinant Human Bcl-2 Protein) (Homo sapiens, UniProt P10415)
T1 construct: purchased Novus NBP2-34889
Assay: Binding evaluation of mixture library compounds to Bcl-2 using AS-MS (affinity selection mass spectrometry)
Conditions: for ASMS ratio (%) n = 1 / ASMS ratio (%) n = 2: ASMS Ratio(%)=(A−C)/B×100; for ASMS ratio (%) n = 1: replicate n = 1; for ASMS ratio (%) n = 2: replicate n = 2
Procedure, shortened: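 Pooled library of ~1200 compounds ([…] each, final) incubated with recombinant human Bcl-2 (20 μM final) in Tris-HCl pH 7.4, NaCl, Tween-20, DTT buffer, dark, 23° C., 1 h. Bound fraction recovered by SEC spin column, organic extraction, reversed-phase LC/MS. ASMS Ratio (%) = (A−C)/B×100 versus protein-free standard and SEC blank.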

[1] = AS-MS, mixture of 1200 compounds, Bcl-2
[2] = AS-MS on the mixture of 1200 library compounds

T1 sequence (P10415 whole entry): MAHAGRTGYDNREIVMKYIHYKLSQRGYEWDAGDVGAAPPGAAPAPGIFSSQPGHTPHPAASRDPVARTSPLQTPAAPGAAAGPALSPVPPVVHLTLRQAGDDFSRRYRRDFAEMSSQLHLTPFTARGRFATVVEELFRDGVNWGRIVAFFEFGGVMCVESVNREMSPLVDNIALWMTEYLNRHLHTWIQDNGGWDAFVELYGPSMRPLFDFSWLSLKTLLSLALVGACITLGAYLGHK

Compound: 6-[4-[[3-(5-Ethoxypyridin-3-yl)-5-propan-2-yloxyphenyl]methyl]piperazin-1-yl]-N-propylpyridazine-3-carboxamide [B1M066-01]
ASMS ratio (%) n = 1 [1]: 0.0%
ASMS ratio (%) n = 2 [1]: 4.4%

ASMS ratio (%) n = 1 [1]: 6.7%
ASMS ratio (%) n = 2 [1]: −7.8%
Compound: CCOc1cccc(-c2ccc(C(=O)N3CCN(c4ccc(C(=O)NCC56CC7CC(CC(C7)C5)C6)cc4)CC3)cc2F)c1 [B1A027-01, N-(1-Adamantylmethyl)-4-[4-[4-(3-ethoxyphenyl)-3-fluorobenzoyl]piperazin-1-yl]benzamide]

ASMS ratio (%) n = 1 [1]: 1.5%
ASMS ratio (%) n = 2 [1]: 3.6%
Compound: CCOc1cncc(-c2ccc(CN3CCN(c4ccc(C(=O)NCC56CC7CC(CC(C7)C5)C6)cc4)CC3)cc2C)c1 [B1A048-01, N-(1-Adamantylmethyl)-4-[4-[[4-(5-ethoxypyridin-3-yl)-3-methylphenyl]methyl]piperazin-1-yl]benzamide]

ASMS ratio (%) (n = 1): 0.0%
ASMS ratio (%) (n = 2): 0.0%
Compound: CCOc1cccc(-c2cc(OC)c(CN3CCN(c4ccc(C(=O)NS(C)(=O)=O)cc4)CC3)c(OC)c2)c1 [B2I059-01]

ASMS ratio (%) n = 1 [1]: −0.5%
ASMS ratio (%) n = 2 [1]: −1.9%
Compound: CCOc1cccc(-c2cnn(-c3cc(C(=O)N4CCN(c5ccc(C(=O)NCC(F)(F)F)nn5)CC4)cc(C(F)(F)F)c3)c2)c1 [B1K021-01, 6-[4-[3-[4-(3-Ethoxyphenyl)pyrazol-1-yl]-5-(trifluoromethyl)benzoyl]piperazin-1-yl]-N-(2,2,2-trifluoroethyl)pyridazine-3-carboxamide]

ASMS ratio (%) n = 1 (AS-MS, mixture library, Bcl-2): 25.0%
ASMS ratio (%) n = 2 (AS-MS, mixture library, Bcl-2): −1.1%
Compound: CCOc1cccc(-c2ccccc2CCC(=O)N2CCN(c3ccc(C(=O)NS(=O)(=O)c4ccc(NCCSc5ccccc5)c([N+](=O)[O-])c4)nn3)CC2)c1 [B2Q011-01, 6-[4-[3-[2-(3-Ethoxyphenyl)phenyl]propanoyl]piperazin-1-yl]-N-[3-nitro-4-(2-phenylsulfanylethylamino)phenyl]sulfonylpyridazine-3-carboxamide]

ASMS ratio (%) (n = 1): 0.0%
ASMS ratio (%) (n = 2): 0.0%
Compound: CCOc1cncc(C#Cc2cc(C(=O)N3CCN(c4ccc(C(=O)NS(C)(=O)=O)cc4)CC3)cc(C(F)(F)F)c2)c1 [B2I042-01, 4-[4-[3-[2-(5-Ethoxypyridin-3-yl)ethynyl]-5-(trifluoromethyl)benzoyl]piperazin-1-yl]-N-methylsulfonylbenzamide]

ASMS ratio (%) n = 1 [2]: 1.6%
ASMS ratio (%) n = 2 [2]: 0.4%
Compound: CCOc1cncc(-c2ccc(CN3CCN(c4ccc(C(=O)Nc5ccc(OC)cc5)cc4)CC3)cc2F)c1 [B1O052-01, 4-[4-[[4-(5-Ethoxypyridin-3-yl)-3-fluorophenyl]methyl]piperazin-1-yl]-N-(4-methoxyphenyl)benzamide]

ASMS ratio (%) (n = 1): 16.0%
ASMS ratio (%) (n = 2): −1.3%
Compound: CCOc1cncc(-c2ccc(CN3CCN(c4ccc(C(=O)NS(=O)(=O)c5ccc(NCCSc6ccccc6)c(C(F)(F)F)c5)nn4)CC3)c3ccccc23)c1 [B2R092-01, 6-[4-[[4-(5-Ethoxypyridin-3-yl)naphthalen-1-yl]methyl]piperazin-1-yl]-N-[4-(2-phenylsulfanylethylamino)-3-(trifluoromethyl)phenyl]sulfonylpyridazine-3-carboxamide]

Compound: CCOc1cncc(-c2cc(CN3CCN(c4ccc(C(=O)NS(=O)(=O)C(C)(C)C)cc4)CC3)cc(OC(C)C)c2)c1 [B2L058-01]
ASMS ratio (%) (n = 1): 0.0%
ASMS ratio (%) (n = 2): 0.0%

ASMS ratio (%) n = 1 (AS-MS, mixture library, Bcl-2): 0.0%
ASMS ratio (%) n = 2 (AS-MS, mixture library, Bcl-2): 0.0%
Compound: CCOc1cncc(-c2csc(C(=O)N3CCN(c4ccc(C(=O)NS(C)(=O)=O)nn4)CC3)c2)c1 [B2I002-01, 6-[4-[4-(5-Ethoxypyridin-3-yl)thiophene-2-carbonyl]piperazin-1-yl]-N-methylsulfonylpyridazine-3-carboxamide]

ASMS ratio (%) n = 1 (AS-MS, mixture library, Bcl-2): 0.0%
ASMS ratio (%) n = 2 (AS-MS, mixture library, Bcl-2): 0.0%
Compound: CCOc1cncc(-c2ccc(C(=O)N3CCN(c4ccc(C(=O)NS(C)(=O)=O)nn4)CC3)cc2F)c1 [B2I006-01, 6-[4-[4-(5-Ethoxypyridin-3-yl)-3-fluorobenzoyl]piperazin-1-yl]-N-methylsulfonylpyridazine-3-carboxamide]

ASMS ratio (%) (n = 1): 0.0%
ASMS ratio (%) (n = 2): 0.0%
Compound: CCOc1cccc(-c2ccc(C(=O)N3CCN(c4ccc(C(=O)NS(=O)(=O)CCC(F)(F)F)cc4)CC3)c3ccccc23)c1 [B2N035-01, 4-[4-[4-(3-Ethoxyphenyl)naphthalene-1-carbonyl]piperazin-1-yl]-N-(3,3,3-trifluoropropylsulfonyl)benzamide]

ASMS ratio (%) n = 1 (AS-MS, mixture library, Bcl-2): 8.8%
ASMS ratio (%) n = 2 (AS-MS, mixture library, Bcl-2): 11.0%
Compound: CCOc1cccc(C#Cc2ccccc2CN2CCN(c3ccc(C(=O)NS(=O)(=O)c4ccc(NCCSc5ccccc5)c([N+](=O)[O-])c4)cc3)CC2)c1 [B2Q069-01]

ASMS ratio (%) n = 1 [2]: 1.9%
ASMS ratio (%) n = 2 [2]: −1.1%
Compound: CCOc1cncc(-c2csc(CN3CCN(c4ccc(C(=O)Nc5ccc(OC)cc5)cc4)CC3)c2)c1 [B1O068-01, 4-[4-[[4-(5-Ethoxypyridin-3-yl)thiophen-2-yl]methyl]piperazin-1-yl]-N-(4-methoxyphenyl)benzamide]

ASMS ratio (%) n = 1 [1]: 3.0%
ASMS ratio (%) n = 2 [1]: 0.0%
Compound: CCOc1cccc(C#Cc2cncc(C(=O)N3CCN(c4ccc(C(=O)NCC56CC7CC(CC(C7)C5)C6)nn4)CC3)c2)c1 [B1A009-01, N-(1-Adamantylmethyl)-6-[4-[5-[2-(3-ethoxyphenyl)ethynyl]pyridine-3-carbonyl]piperazin-1-yl]pyridazine-3-carboxamide]

ASMS ratio (%) n = 1 [1]: 0.0%
ASMS ratio (%) n = 2 [1]: 0.0%
Compound: CCOc1cncc(-c2ccccc2CCC(=O)N2CCN(c3ccc(C(=O)NCC45CC6CC(CC(C6)C4)C5)nn3)CC2)c1 [B1A012-01, N-(1-Adamantylmethyl)-6-[4-[3-[2-(5-ethoxypyridin-3-yl)phenyl]propanoyl]piperazin-1-yl]pyridazine-3-carboxamide]

ASMS ratio (%) (n = 1): 0.0%
ASMS ratio (%) (n = 2): 0.0%
Compound: CCOc1cccc(C#Cc2ccccc2C(=O)N2CCN(c3ccc(C(=O)NS(=O)(=O)CCC(F)(F)F)nn3)CC2)c1 [B2N007-01, 6-[4-[2-[2-(3-Ethoxyphenyl)ethynyl]benzoyl]piperazin-1-yl]-N-(3,3,3-trifluoropropylsulfonyl)pyridazine-3-carboxamide]

ASMS ratio (%) (n = 1): 9.2%
ASMS ratio (%) (n = 2): 7.5%
Compound: CCOc1cncc(-c2ccc(C(C)N3CCN(c4ccc(C(=O)NS(=O)(=O)c5ccc(NCCSc6ccccc6)c(C(F)(F)F)c5)cc4)CC3)cc2)c1 (stereo not drawn) [B2R098-01, 4-[4-[1-[4-(5-Ethoxypyridin-3-yl)phenyl]ethyl]piperazin-1-yl]-N-[4-(2-phenylsulfanylethylamino)-3-(trifluoromethyl)phenyl]sulfonylbenzamide]

ASMS ratio (%) n = 1 [2]: 3.2%
ASMS ratio (%) n = 2 [2]: −4.7%
Compound: CCOc1cccc(-c2ccccc2CN2CCN(c3ccc(C(=O)N(C)CC45CC6CC(CC(C6)C4)C5)nn3)CC2)c1 [B3A071-01, N-(1-Adamantylmethyl)-6-[4-[[2-(3-ethoxyphenyl)phenyl]methyl]piperazin-1-yl]-N-methylpyridazine-3-carboxamide]

ASMS ratio (%) n = 1 [2]: 0.0%
ASMS ratio (%) n = 2 [2]: 3.5%
Compound: CCOc1cncc(C#Cc2ccccc2CN2CCN(c3ccc(C(=O)Nc4ccc(OC)cc4)nn3)CC2)c1 [B1O096-01, 6-[4-[[2-[2-(5-Ethoxypyridin-3-yl)ethynyl]phenyl]methyl]piperazin-1-yl]-N-(4-methoxyphenyl)pyridazine-3-carboxamide]
